Among the data in PubChem BioAssay (NCI) are TGI values, retold here.

Assay in all cases: NCI-60 cell line screen, 48 h
Experiment [1] relates to HCT-116 colon.
In experiment [2] the test system is SN12C renal.
The subject of experiment [3] is OVCAR-4 ovarian.
For experiment [4], the system named is TK-10 renal.
The subject of experiment [5] is SR leukemia.
For experiment [6], the system named is A498 renal.

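A five-concentration, 48-hour dose response in 96-well plates underlies each endpoint, interpolated linearly between surrounding concentrations. TGI denotes the concentration required for complete inhibition of growth.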 Where a SMILES comes first, the peptide text is derived from it. The star is where a group is joined. Boc = CC(C)(C)OC(=O)* Bounds are passed on as bounds.

In the case of `CC1(C)OP(=O)(c2ccccc2)C=C1Br` (stereo unspecified), the TGI in experiment [1], in experiment [2], in experiment [3], in experiment [4], in experiment [5] and in experiment [6] was over 100 µM in each case.

As to `CCOC(=O)c1ccc(N(C)Cc2cnc3nc(N)nc(N)c3n2)cc1`, the TGI in experiment [1] was over 100 µM; in experiment [2], over 100 µM; in experiment [4], 35.4 µM; in experiment [5], over 100 µM; in experiment [6] it was 59.8 µM.

For the compound `Cc1c(/C=N/NC(=S)Nc2ccc([N+](=O)[O-])cc2)c(=O)n(-c2ccccc2)n1C`, the TGI is 52.3 µM in experiment [1]; 34.7 µM in experiment [3]; 26.3 µM in experiment [4]; over 100 µM in experiment [5]; 24 µM in experiment [6].

As for `CC1(C)CCCCC1/C=C/C(CC(O)(C(F)(F)F)C(F)(F)F)=N\Nc1ccc([N+](=O)[O-])cc1[N+](=O)[O-]` (stereo unspecified), the TGI is 6.2 µM in experiment [1]; 31.7 µM in experiment [2]; 18.7 µM in experiment [3]; 15.5 µM in experiment [4]; over 100 µM in experiment [5]; 6.96 µM in experiment [6].

`O=C1NC(=S)NC1C(Cc1ccccc1)c1ccco1` (stereo unspecified): the TGI in experiment [1], in experiment [2], in experiment [3], in experiment [4], in experiment [5] and in experiment [6] was over 100 µM throughout.

As to `CC(C)(Cl)C(Br)CCC(=CCBr)CBr` (mixture of isomers), the TGI was 3.66 µM in experiment [1]; 8.39 µM in experiment [2]; 5.06 µM in experiment [3]; 12.5 µM in experiment [4]; 18.3 µM in experiment [6].

As to `COc1ccc(NS(=O)(=O)c2ccc3ncn(NS(=O)(=O)c4ccc(I)cc4)c(=O)c3c2)cc1`, the TGI in experiment [1], in experiment [2], in experiment [3], in experiment [4], in experiment [5] and in experiment [6] was over 100 µM in each case.

As for `CNC(=S)N/N=C(\C)c1cc(OC)c(OC)cc1O`, the TGI in experiment [1], in experiment [2], in experiment [4], in experiment [5] and in experiment [6] was over 100 µM throughout.

In the case of `CCCCN(CCCC)C1(c2cc3ccccc3s2)CCCCC1`, the TGI came out at 23.7 µM in experiment [1]; 36.6 µM in experiment [2]; 30 µM in experiment [3]; 31.2 µM in experiment [4]; 33.5 µM in experiment [5]; 34.1 µM in experiment [6].

On to `COc1cc2c(OC)c3cc(C)oc(=O)c3c(O)c2c(O)c1-c1c(OC)cc2c(OC)c3cc(C)oc(=O)c3c(O)c2c1O`, for which the TGI was 28 µM in experiment [1]; 45.2 µM in experiment [2]; over 100 µM in experiment [3]; 66.8 µM in experiment [4]; 51 µM in experiment [6].

Regarding `CCOC(=O)C(=O)N=Nc1c(O)[nH]c2ccccc12`, the TGI in experiment [1], in experiment [2], in experiment [3], in experiment [4], in experiment [5] and in experiment [6] was over 100 µM in each case.

With `CC(Cc1ccc(O)cn1)(NC(=O)c1ccccc1)C(=O)O` (stereo unspecified), the TGI in experiment [1], in experiment [3], in experiment [4] and in experiment [5] was over 100 µM in each case.

`O=C(CC(O)(C(F)(F)Cl)C(F)(F)Cl)CC(O)(C(F)(F)Cl)C(F)(F)Cl`: the TGI in experiment [1] was 3.68 µM; in experiment [2] it was over 10 µM; in experiment [3] it was 9.67 µM; in experiment [4] it was over 10 µM; in experiment [5], over 10 µM; in experiment [6], 7.74 µM.

For `CCOC(=O)c1sc2c(c1OC(=O)c1ccc(Cl)cc1Cl)c(=O)n(-c1ccccc1)c(=S)n2-c1ccccc1`, the TGI is over 78.5 µM in experiment [1]; 22.6 µM in experiment [2]; over 100 µM in experiment [3]; over 100 µM in experiment [4]; 46.1 µM in experiment [6].

Consider `COc1ccc(-c2nc(SCC(=O)N/N=C/c3ccc([N+](=O)[O-])cc3)[nH]c2-c2ccc(OC)cc2)cc1`, for which the TGI in experiment [1] is 37.3 µM; in experiment [2] it was 46.6 µM; in experiment [3], over 100 µM; in experiment [4], over 100 µM; in experiment [6], 55.4 µM.

As to `COc1cc(/C=C2\N=C(c3ccccc3)N(c3ccc4c(c3)Sc3cc(N5C(=O)/C(=C/c6cc(OC)c(OC)c(OC)c6)N=C5c5ccccc5)ccc3N4)C2=O)cc(OC)c1OC`, the TGI in experiment [1] is over 100 µM; in experiment [2], 51 µM; in experiment [3], 36.9 µM; in experiment [4] it was 30.9 µM; in experiment [6], 43.1 µM.

Regarding `Cc1ccc(S(=O)(=O)NN=C2C(C)CC(C(C)(C)C)CC2C)cc1` (stereo unspecified), the TGI came out at 34.1 µM in experiment [1]; 32.7 µM in experiment [2]; 29.1 µM in experiment [3]; 65 µM in experiment [4]; 62.2 µM in experiment [5]; 31.4 µM in experiment [6].

In the case of `O=c1cc(CN2CCCCC2)[nH]c2c1ccc1nc(CN3CCCCC3)cc(=O)n12`, the TGI in experiment [1], in experiment [2], in experiment [3], in experiment [4], in experiment [5] and in experiment [6] was over 100 µM each time.

Regarding `COc1cc(S(=O)(=O)Nc2ccc(-c3csc(/N=C\c4ccccc4O)n3)cc2)ccc1Cl`, the TGI in experiment [1] was over 100 µM; in experiment [2], over 100 µM; in experiment [3] it was over 100 µM; in experiment [5], 95.2 µM; in experiment [6], over 100 µM.

With `CCCc1c(O)c2ccccc2[nH]c1=O`, the TGI in experiment [1], in experiment [2], in experiment [3], in experiment [4], in experiment [5] and in experiment [6] was over 100 µM in each case.

For the compound `CCOC(=O)C(=NN(C)c1ncccc1N)C(=O)OCC`, the TGI in experiment [1] was 65.4 µM; in experiment [2], 64.5 µM; in experiment [3], over 100 µM; in experiment [4], over 100 µM; in experiment [5], over 100 µM; in experiment [6] it was over 100 µM.

`COc1ccc(/C=C2\N=C(N3CCOCC3)NC2=O)cc1`: the TGI in experiment [1], in experiment [2], in experiment [3], in experiment [4] and in experiment [5] was over 100 µM in each case.

In the case of `N=C(N)SCCSC(=N)N`, the TGI in experiment [1], in experiment [2], in experiment [3], in experiment [4] and in experiment [6] was over 100 µM throughout.

For `Cc1ccc(OC2CC(n3cnc4c(=O)[nH]c(Br)nc43)OC2Oc2ccc(C)cc2)cc1` (stereo unspecified), the TGI in experiment [1] is over 100 µM; in experiment [2], 56.5 µM; in experiment [3] it was over 100 µM; in experiment [4], 49.8 µM; in experiment [5], 51.1 µM; in experiment [6], over 100 µM.

As to `Brc1ccc(N=C/C=C(\Nc2ccc(Br)cc2)C23CC4CC(CC(C4)C2)C3)cc1`, the TGI in experiment [1] is 23.8 µM; in experiment [2] it was over 64.2 µM; in experiment [3], 31.3 µM; in experiment [4], 28.6 µM; in experiment [6], 79.7 µM.

Turning to `CNC(=O)CNC(=O)C(NC(=O)CNC(=O)C1CCCN1C(=O)C(C)NC(=O)C(NC(=O)OC(C)(C)C)C(C)C)C(C)C` (stereo unspecified) (Boc-VAPGVG-NHMe; configuration not given here), the TGI in experiment [1], in experiment [2], in experiment [3], in experiment [4], in experiment [5] and in experiment [6] was over 100 µM each time.

Regarding `CC(=O)OCC(OC(C)=O)C(OC(C)=O)C(/C=N\Nc1nc2ccccc2c(=O)[nH]1)OC(C)=O` (stereo unspecified), the TGI in experiment [1], in experiment [2], in experiment [4], in experiment [5] and in experiment [6] was over 100 µM in each case.

Take `CN1CCN(Cn2nc(-c3ccccc3)n(/N=C/c3ccc(-c4ccc(Cl)cc4Cl)o3)c2=S)CC1`: the TGI in experiment [1] came to 14.8 µM; in experiment [3], 54.8 µM; in experiment [4], 29.7 µM; in experiment [5], 5.04 µM; in experiment [6] it was 58.1 µM.

With `CC(=O)c1cc2sc3ccccc3c2[nH]1`, the TGI in experiment [1], in experiment [2], in experiment [3], in experiment [4] and in experiment [6] was over 100 µM throughout.

`C/C(CC(O)(C(F)(F)Cl)C(F)(F)Cl)=N\Nc1ccccc1`: the TGI in experiment [1] was over 100 µM; in experiment [3] it was over 100 µM; in experiment [4] it was 95.3 µM; in experiment [5], over 100 µM; in experiment [6], over 100 µM.

With `COc1ccc2cc(NC(=O)Nn3cnnc3)ccc2c1`, the TGI in experiment [1], in experiment [3], in experiment [4], in experiment [5] and in experiment [6] was over 100 µM in each case.

Regarding `COc1cc(Br)cc2c1O[C@H]1C(=O)CC3CC21CCN3C` (stereo partly specified), the TGI in experiment [1], in experiment [5] and in experiment [6] was over 100 µM each time.

`COc1ccccc1NC(=S)NNC(=O)c1cc(-c2ccccc2)nc2ccccc12`: the TGI in experiment [1] was 25.6 µM; in experiment [2], 41.5 µM; in experiment [3], 85.4 µM; in experiment [4] it was over 100 µM; in experiment [5] it was 4.53 µM.

Regarding `CCc1nc2c(n1CC)C(=O)c1ccccc1C2=O`, the TGI in experiment [1] is over 10 µM; in experiment [2], over 100 µM; in experiment [3], over 100 µM; in experiment [4], 93.1 µM; in experiment [5] it was over 100 µM.

For the compound `Cn1c(=O)oc2cc(C(=O)CN3CCN(Cc4ccc5c(c4)OCO5)CC3)c(Cl)cc21`, the TGI in experiment [1], in experiment [2] and in experiment [5] was over 100 µM throughout.

On to `Cc1nn(C(=O)c2ccc(Cl)cc2)c2c1C(c1ccccc1)SC(N)=N2` (stereo unspecified), for which the TGI in experiment [1], in experiment [2], in experiment [3], in experiment [4] and in experiment [5] was over 10 µM throughout.

Consider `COc1cc(C2SC(N)=Nc3c2c(C)nn3C(=O)Cc2ccccc2)cc(OC)c1OC` (stereo unspecified), for which the TGI in experiment [1], in experiment [2], in experiment [4], in experiment [5] and in experiment [6] was over 100 µM throughout.

With `N#Cc1nc(/C=C/c2cccs2)oc1N`, the TGI in experiment [1] is over 100 µM; in experiment [2], over 100 µM; in experiment [4], over 100 µM; in experiment [5], 74 µM; in experiment [6], over 100 µM.

Take `Cc1cc(N(C)C)ccc1N=Nc1ccc2ncccc2c1`: the TGI in experiment [1] was over 100 µM; in experiment [2], over 100 µM; in experiment [4], 76.2 µM; in experiment [5] it was over 100 µM.

For the compound `CO[C@@H]1C[C@H]2[C@@H]3CC[C@H]([C@@H](C)COC(C)=O)[C@@]3(C)CC[C@@H]2[C@@]2(C)CC[C@H]3C[C@]312`, the TGI in experiment [1] is 22.2 µM; in experiment [2] it was 32.1 µM; in experiment [3] it was 44.8 µM; in experiment [5] it was 26.5 µM; in experiment [6], 35.6 µM.

In the case of `Cc1ccc([N+](=O)[O-])cc1S(=O)(=O)Nc1ccc(C(=O)/C=C/c2ccccc2)cc1`, the TGI is 29.3 µM in experiment [1]; 43.2 µM in experiment [2]; 5.51 µM in experiment [3]; over 100 µM in experiment [4]; 54.7 µM in experiment [5].

On to `CN(NC(=O)c1ccc(Cl)cc1)C1=NCCCCN1`, for which the TGI in experiment [1], in experiment [3], in experiment [4], in experiment [5] and in experiment [6] was over 100 µM throughout.

Consider `CC1(C)CC(=O)c2c(nc3c(ccc4ccccc43)c2-c2ccc(NC(=O)CCCCCCCCC(=O)Nc3ccc(-c4c5c(nc6c4ccc4ccccc46)CC(C)(C)CC5=O)cc3)cc2)C1`, for which the TGI in experiment [1], in experiment [2], in experiment [4] and in experiment [5] was over 100 µM in each case.

For `O=c1[nH]ncc2[nH]c(-c3ccccc3)cc12`, the TGI in experiment [1], in experiment [2], in experiment [3], in experiment [4] and in experiment [5] was over 100 µM each time.
